Source: patent US20150051387A1, “WATER SOLUBLE PLATINUM COMPLEXES FOR TUMOR TREATMENT AND PROCESS OF PREPARING SAME” (GUDUI BIOPHARMA TECHNOLOGY INC., priority 2011, published 2015)

Assays:
L1210 tumor cells = experiment: Antitumor efficacy in L1210 leukemia-bearing CDF1 mice (Experiment-2); type: in vivo; details: for Weight Changes: first day to seventh day
Experimental: In the following test, antitumor efficacy studies were performed using 8-9 weeks old female CDF1 mice, the average weight of the animal is 20-25 grams. L1210 tumor cells (about 10^5 cells per mouse) were inoculated intraperitoneally. The water-soluble platinum complexes were used to treat the tumor-bearing animals and the efficacy was compared compared with the clinical platinum antitumor drugs. […] Drugs were administered intraperitoneally on day 1 and day 4 after tumor cell transplantation. The number of experimental animals in each group was 6.
The experimental animals were purchased from Vital River Laboratory Animal Technology Co. Ltd., Tumor cells L1210-leukemia cells were purchased from Shanghai An Yan Commercial Trade Co. Ltd.
The increase in life span (ILS) is calculated as follows:
Wherein, St=the weighted median survival time of treated animals; Su=the weighted median survival time of untreated animals

[1] = Solubility in water at room temperature (Experiment-1)
[2] = 1.25 mg/Kg i.p. day 1 and day 4

N.N.[Cl][Pt][Cl] [Cisplatin, cisplatin]
Survival Animals on Day 42 (L1210 tumor cells; [2]): 0/6 | Weight Changes (L1210 tumor cells; [2]): +1.1 g | Survival Animals on Day 42 (L1210 tumor cells; 2.5 mg/Kg i.p. day 1 and day 4): 1/6 | Weight Changes (L1210 tumor cells; 2.5 mg/Kg i.p. day 1 and day 4): -0.6 g | Survival Animals on Day 42 (L1210 tumor cells; 5.0 mg/Kg i.p. day 1 and day 4): 3/6 | Weight Changes (L1210 tumor cells; 5.0 mg/Kg i.p. day 1 and day 4): -2.2 g

N.N.O=C([O-])C1(C(=O)[O-])CCC1.[Pt+2] [Carboplatin, carboplatin]
Survival Animals on Day 42 (L1210 tumor cells; 24 mg/Kg i.p. day 1 and day 4): 0/6 | Weight Changes (L1210 tumor cells; 24 mg/Kg i.p. day 1 and day 4): +0.6 g | Survival Animals on Day 42 (L1210 tumor cells; 40 mg/Kg i.p. day 1 and day 4): 0/6 | Weight Changes (L1210 tumor cells; 40 mg/Kg i.p. day 1 and day 4): -0.4 g | Survival Animals on Day 42 (L1210 tumor cells; 80 mg/Kg i.p. day 1 and day 4): 1/6 | Weight Changes (L1210 tumor cells; 80 mg/Kg i.p. day 1 and day 4): -1.2 g | solubility [1]: 16.6 mg/1 mL H2O

cis-[trans-(1R,2R)-diamino cyclohexane] Pt (II) (1-O-D-glucoside-propane-3-chloro-3,3-dicarboxylate) [Example 1]
ILS (L1210 tumor cells; 50 mg/Kg i.p. day 1 and day 4): >425% | Survival Animals on Day 42 (L1210 tumor cells; 50 mg/Kg i.p. day 1 and day 4): 6/6 | Weight Changes (L1210 tumor cells; 50 mg/Kg i.p. day 1 and day 4): +1.1 g | ILS (L1210 tumor cells; 100 mg/Kg i.p. day 1 and day 4): >425% | Survival Animals on Day 42 (L1210 tumor cells; 100 mg/Kg i.p. day 1 and day 4): 6/6 | Weight Changes (L1210 tumor cells; 100 mg/Kg i.p. day 1 and day 4): +0 g | ILS (L1210 tumor cells; 200 mg/Kg i.p. day 1 and day 4): >425% | Survival Animals on Day 42 (L1210 tumor cells; 200 mg/Kg i.p. day 1 and day 4): 6/6 | Weight Changes (L1210 tumor cells; 200 mg/Kg i.p. day 1 and day 4): -0.4 g
